Converted amounts (≈) assume the structure as drawn.
details: buffer; pH 7.4; 200.0 µM

SMILES | solubility kinetic [µg/mL]
CC1CCCN(C(=O)COC(=O)C2=COCCO2)C1 (stereo unspecified) | > 40.4
Nc1nc(NCCO)nc(NCc2ccccc2)c1[N+](=O)[O-] | 15.6 (≈ 51.3 µM)
Cc1ccccc1N=C1c2ccccc2C(=O)C1[N+](=O)[O-] (stereo unspecified) | 31.7 (≈ 113 µM)
Cc1ccc(CNC(=O)COC(=O)C2CCC2)cc1 | > 39.2
NC(=S)NC1CC2CC1C1C=CCC21 (stereo unspecified) | > 31.2
CN1CCN(CCNC(=O)Nc2ccccc2[N+](=O)[O-])CC1 | 45.5 (≈ 148 µM)
COC(=O)CCSC(=S)N1CCOCC1 | > 37.4
O=C(Nc1ccc(Cl)cn1)C1COc2ccccc2O1 (stereo unspecified) | 2 (≈ 6.88 µM)
O=C(OCC(=O)N1CCCC1)c1cccc(Br)c1 | > 46.8
Fc1ccccc1OCCCn1ccnc1 | > 33
CCn1c(SC)nc2cc(S(=O)(=O)N3CCCCC3)ccc21 | 43.6 (≈ 128 µM)
Cc1cccc(NC(=O)CN(C)C(=O)C2CCCC2)c1C | > 43.3
Cc1[nH]c2ccc(C(=O)N3CCCC3)cc2c1C | > 36.3
Cc1cccc(OCC(=O)NCCCNC(=O)c2ccccn2)c1 | 45.4 (≈ 139 µM)
Cc1ccc(S(=O)(=O)N2CCN(C(=O)c3cccs3)CC2)cc1C | 44.4 (≈ 122 µM)
CC(CN1CCCCC1)OC(=O)c1ccco1.Cl (stereo unspecified) | > 41.1
Cn1cccc1CNC(=S)Nc1ccccc1F | > 39.5
CNC(=O)O/N=C(\N)Cc1csc2ccccc12 | 39.2 (≈ 149 µM)
COC(=O)c1sccc1-c1ccc(/C=N/OC(=O)c2cccs2)o1 | < 0.8
COc1ccc2cc(C(=O)NCCCN3CCCC3=O)[nH]c2c1 | > 47.3
C=CCn1c(/N=C/c2ccc(OC)cc2)nc2ccccc21 | 40.6 (≈ 139 µM)
Cc1ccc(CNC(=O)COC(=O)COc2ccc(C#N)cc2)cc1 | > 50.8
O=C(NCCCc1ccccc1)C(=O)c1c[nH]c2ccccc12 | 1.2 (≈ 3.92 µM)

SMILES | solubility kinetic [µg/mL]
COc1ccccc1NC(=O)COC(=O)/C=C/c1ccc(OC)c(OC)c1 | 4.1 (≈ 11 µM)
NC(=O)c1cc(S(=O)(=O)N2CCCCC2)cs1 | > 41.2
COc1ccc(C(=O)N/C(=C\c2ccc(SC)cc2)C(=O)NCCCn2ccnc2)cc1OC | 12.3 (≈ 25.6 µM)
Cc1ccc(CC2CC(=O)N(c3cc(Cl)ccn3)C2=O)cc1 (stereo unspecified) | 13.7 (≈ 43.5 µM)
COc1ccc(/C=C2\SC(=S)N(CC3CCCO3)C2=O)cc1 (stereo unspecified) | < 0.7
Nc1ccccc1SCCS(=O)(=O)c1ccc(Cl)cc1 | 2.2 (≈ 6.71 µM)
Nc1ccccc1S(=O)(=O)NCCCCc1ccccc1 | 28.7 (≈ 94.3 µM)
CN(C(=O)COC(=O)/C=C/c1ccccc1[N+](=O)[O-])c1ccccc1 | 47.5 (≈ 140 µM)
CC1CN(C(=S)Nc2ccccc2)CC(C)O1 (stereo unspecified) | 35.4 (≈ 141 µM)
O=C(NC1CCCC1)c1cc(-c2ccccc2O)on1 | 2.2 (≈ 8.08 µM)
CC(CN1CCCC1)OC(=O)c1cccc(F)c1.Cl (stereo unspecified) | 39.6
CC(C)(C)c1ccc(NC(=O)c2ccsc2)cc1 | 1.1 (≈ 4.24 µM)
O=C(COc1ccccc1[N+](=O)[O-])Nc1cc(Cl)ccc1C(=O)O | > 52.6
CCCc1nc2sc3c(c2c(=O)[nH]1)CCCC3 | 1.3 (≈ 5.23 µM)
CCOc1ccc(C(=S)N2CCCC2)cc1OCC | 41.8 (≈ 150 µM)
COc1ccc(OCC(=O)Nc2cc(OC)ccc2N2CCCCC2)cc1 | < 0.4
CC(=O)Nc1ccc(S(=O)(=O)N2CCCCC2C(=O)O)cc1 (stereo unspecified) | 44.4 (≈ 136 µM)
CC(=O)Nc1nc2cccc([N+](=O)[O-])c2s1 | 2.8 (≈ 11.8 µM)
Cc1cccc(OC(C)C(=O)N2CCc3ccccc3C2)c1 (stereo unspecified) | 36 (≈ 122 µM)
O=C1CC(N2CCN(c3ccc(F)cc3)CC2)C(=O)N1c1ccccc1 (stereo unspecified) | 49.4 (≈ 140 µM)
N#CCC(=O)Nc1ccc(C(=O)OCC(=O)NC2CCCc3ccccc32)cc1 (stereo unspecified) | 7.5 (≈ 19.2 µM)
Cc1ccc(NC(=O)c2ccc3nc[nH]c3c2)nc1 | > 37.8
CCN(CC)CCOC(=O)C(c1ccccc1)C1CCCCC1.Cl (stereo unspecified) | > 53.1

SMILES | solubility kinetic [µg/mL]
CC1(c2ccc3ccccc3c2)NC(=O)NC1=O (stereo unspecified) | 29.3 (≈ 122 µM)
OC(CN1CCC(Cc2ccccc2)CC1)C(F)(F)F (stereo unspecified) | > 43.1
CCN(C(=O)C(C)Cl)c1ccccc1 (stereo unspecified) | 20.6 (≈ 97.3 µM)
C=CCn1c(SCC(=O)N(C)C)nc2sc3c(c2c1=O)CCC3 | 3.4 (≈ 9.73 µM)
CCOc1ccc(N2CC(C(=O)N3CCCC3)CC2=O)cc1 (stereo unspecified) | > 45.4
COc1ccc2c(c1)c(CC(=O)OCC(=O)O)c(C)n2C(=O)c1ccc(Cl)cc1 | > 62.4
CNS(=O)(=O)c1cc(Nc2ncnc3sccc23)ccc1C | 2.5 (≈ 7.48 µM)
C[N+]1(CCOC(=O)C2(c3ccccc3)CCCC2)CCCCC1 | > 47.5
COc1ccc(NC(=O)CCCn2cnc3ccccc3c2=O)cc1 | > 50.6
COCCn1c(SCC(=O)N2CCOCC2)nc2ccccc2c1=O | 51.5 (≈ 142 µM)
Cn1c(=O)n(C)c2cc(NC(=O)COc3ccc(F)cc3F)ccc21 | 47.2 (≈ 136 µM)
COc1ccc(NC(=O)c2cc(S(=O)(=O)N3CCOCC3)ccc2C)cc1S(=O)(=O)N1CCOCC1 | > 80.9
COc1cc(NC(=O)Cn2c([N+](=O)[O-])cnc2C)c(OC)cc1Cl | 45.3 (≈ 128 µM)
O=C(c1cc(COc2ccc(F)cc2F)on1)N1CCOCC1 | > 48.6
O=C(NCc1ccco1)C1CCCN1C(=O)Nc1ccc(Cl)cc1 (stereo unspecified) | 3.4 (≈ 9.78 µM)
COc1ccccc1OCC#CCSc1ncccn1 | > 43
Nc1c(C(=O)Nc2ccccc2)c2nc3ccccc3nc2n1-c1ccc(O)cc1 | 0.7 (≈ 1.77 µM)
O=C(NC(O)C(=O)c1ccc(F)cc1)c1ccc(F)cc1 (stereo unspecified) | > 43.7
CC(C)(C)C(=O)N1CCN(c2nc3ccccc3o2)CC1 | > 43.1
COc1ccc(S(=O)(=O)N[C@@H](CSCc2ccccc2)C(=O)O)cc1 | > 57.2
CC(C)Cn1cnc2c1c(=O)n(C)c(=O)n2C | > 35.4
O=C(CCc1ccccc1)Nc1cccc(S(=O)(=O)N2CCOCC2)c1 | 50.6 (≈ 135 µM)
COc1ccc(S(=O)(=O)Nc2ncccn2)cc1 | 23.1 (≈ 87.1 µM)

Second part, the molecule after the results:

solubility kinetic [µg/mL] | SMILES
> 46.7 | Cc1nc(Cl)c(N=Cc2cccc([N+](=O)[O-])c2)c(Cl)n1
> 46.4 | CC1=NN(C(=O)CCc2ccccc2)C(O)(c2ccncc2)C1 (stereo unspecified)
55.2 (≈ 146 µM) | CCOc1cccc(C(=O)NC(=S)Nc2ccc(Cl)cc2C(=O)O)c1
> 46.8 | Cc1cc(C)nc(NC(=O)c2ccc(Br)s2)n1
28.9 (≈ 103 µM) | O=C(NC1CCCCC1)c1cc(F)cc2c1OCOC2
1.2 (≈ 3.47 µM) | CC1CN(c2ccc(Cl)cc2)c2nc3c(c(=O)[nH]c(=O)n3C)n2C1 (stereo unspecified)
1.3 (≈ 3.52 µM) | O=C(COC(=O)C12CC3CC(CC(C3)C1)C2)Nc1ccc2[nH]c(=O)[nH]c2c1
34.4 (≈ 107 µM) | O=C(c1ccc(COc2ccccc2Cl)o1)N1CCOCC1
> 53.1 | COc1cc(Cl)c(C)cc1NC(=O)CCN1C(=O)NC(C)(C)C1=O
14.5 (≈ 38.4 µM) | O=C(CN1C(=O)NC2(CCCC2)C1=O)NC(c1ccccc1)c1ccccc1
1.2 (≈ 4.19 µM) | O=C(NC1CC1)c1sc2cc(Cl)ccc2c1Cl
8.8 (≈ 26.2 µM) | N/C(CS(=O)(=O)c1ccccc1)=N\OC(=O)c1ccc(F)cc1
> 55.4 | COc1ccc2[nH]cc(C(O)CN3CCN(c4ccccc4F)CC3)c2c1 (stereo unspecified)
2.8 (≈ 9.07 µM) | Cc1cc(Cl)ccc1NC(=S)NCc1ccc(F)cc1
13.3 (≈ 41.5 µM) | O=C(COC(=O)COc1ccccc1)Nc1ccc(Cl)cn1
15.1 (≈ 86.2 µM) | CC(=O)Nc1nc2ccccc2[nH]1
3.1 | Cc1ccc(C(C)C)c(OCCCN2CCc3ccccc3C2)c1.Cl
> 41.7 | NC1=NC(=O)/C(=C/c2ccc(OCC(=O)O)cc2)S1
0.9 (≈ 3.09 µM) | COc1ccc(S(=O)(=O)N2CCCC2)c2ccccc12
8.9 (≈ 27.4 µM) | COc1ccc(CC(=O)Nc2ccc(N3CCCC3)c(C)c2)cc1
50.8 (≈ 146 µM) | COc1ccccc1CN(C)C(=O)CNC(=O)c1cccc(Cl)c1
7.6 (≈ 19.5 µM) | COc1ccccc1CNC(=O)CNC(=O)c1sc2ccccc2c1Cl
4.4 (≈ 15.3 µM) | Cc1ccc2[nH]c3c(NCc4ccccc4)ncnc3c2c1
32.6 (≈ 139 µM) | Nc1c(Cl)ncnc1NCc1ccccc1
32.8 (≈ 139 µM) | CCCCNC(=O)C(=O)NCc1ccncc1
> 33.3 | C=C(C)CNC(=S)Nc1cccc(N)n1

solubility kinetic [µg/mL] | SMILES
13.4 (≈ 45.1 µM) | c1ccc(-c2noc(CN3CCc4sccc4C3)n2)cc1
> 50.9 | COc1cccc(NC(=O)C(c2ccccc2)N2CCNC(=O)C2)c1 (stereo unspecified)
> 47.9 | Cc1ccc(C(=O)NCCNS(=O)(=O)c2ccccc2)cn1
29.5 (≈ 67.6 µM) | Cc1nc(SCC(=O)Nc2cccc(S(=O)(=O)N3CCOCC3)c2)nc(C)c1C
30 (≈ 114 µM) | CSc1ccccc1NC(=O)c1csc(C)c1
5.4 (≈ 17.8 µM) | Cc1ccc(NS(=O)(=O)c2ccc3[nH]c(=O)[nH]c3c2)cc1
> 50.5 | NC(=O)C1CCN(C(=O)c2ccccc2CCc2ccccc2)CC1
8.3 (≈ 26.1 µM) | O=C1c2ccc([N+](=O)[O-])cc2S(=O)(=O)N1Cc1ccccc1
> 35 | O=C(Nc1ccncc1Cl)c1ccncc1
20.8 (≈ 63 µM) | CN1CCN(c2ccc([N+](=O)[O-])cc2NC(=O)c2ccco2)CC1
24.6 (≈ 78.1 µM) | O=C(Cc1nc2ccccc2[nH]1)c1ccc(Br)cc1
> 36.5 | CC(=O)c1cccc(NC(=O)c2ccc(C)o2)c1
0.3 (≈ 1.03 µM) | COc1ccc(NC(=O)NCc2ccc(Cl)cc2)cc1
< 0.3 | COC(=O)c1cccc(NC(=O)Nc2ccc(Cl)cc2)c1
< 0.7 | Cc1ccsc1/C=C1\SC(=S)N(CC2CCCO2)C1=O (stereo unspecified)
> 31.7 | Nc1ccc(C(=O)[O-])c(O)c1.O.[Na+]
> 51.5 | O=C(CCNC(=O)c1ccco1)Nc1ccccc1N1CCOCC1
> 42.8 | CC1Cc2ccccc2N1C(=O)CSc1ncccn1 (stereo unspecified)
49.4 (≈ 140 µM) | O=S(=O)(c1ccc(Cl)cc1)N1CCN(Cc2cccnc2)CC1
7.6 (≈ 20 µM) | O=C(Nc1ccc(S(=O)(=O)N2CCCCC2)cc1)c1ccc(Cl)nc1
> 38.4 | O=C(NC(O)C(=O)c1ccccc1)c1ccccn1 (stereo unspecified)
> 53.7 | Cc1noc(C)c1C(=O)OCC(=O)Nc1ncc(Cl)c(C)c1Cl
43.9 (≈ 139 µM) | Cc1ccccc1OCC(=O)NCCCNC(=O)c1ccco1
< 0.3 | O=C(Nc1ccc(F)cc1)Nc1ccc2c(c1)CCC2
17.6 (≈ 63.4 µM) | O=C(Nc1ccncc1)c1ccc([N+](=O)[O-])cc1Cl
20.9 (≈ 115 µM) | O=C1CCNc2c(Cl)cccc21

Source: PubChem BioAssay AID1996
